Laboratory results from ChEMBL document CHEMBL1201862, “PubChem BioAssay data set” (2004).
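These data come from cells grown in 96-well plates and exposed to compound for 48 hours at five concentrations. Abbreviation: GI50, concentration required for 50% inhibition of growth.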 The source made the active and inactive calls. No stated cut-off is given here; in the data, active = GI50 up to about 1.1 µM and inactive = higher.

Assays:
Test in all cases: inhibition of tumour cell growth, NCI panel, 48 h
A549 = test system: A549
COLO 205 = test system: COLO 205
HCT-116 = test system: HCT-116
HT-29 = test system: HT-29
IGROV-1 = test system: IGROV-1
K562 = test system: K562
M14 = test system: M14
NCI-H522 = test system: NCI-H522
OVCAR-5 = test system: OVCAR-5
SF-295 = test system: SF-295
SF-539 = test system: SF-539
SK-MEL-28 = test system: SK-MEL-28
U-251 = test system: U-251
UACC-62 = test system: UACC-62
HCT-15 = test system: HCT-15

## N#CC12Cc3cc4c(cc3-c3cccc(c31)CCN2C(=O)c1ccccc1)OCO4 (configuration not stated)
A549
  GI50: > 100 µM (inactive)
COLO 205
  GI50: > 100 µM (inactive)
HCT-116
  GI50: > 100 µM (inactive)
HT-29
  GI50: > 100 µM (inactive)
IGROV-1
  GI50: > 100 µM (inactive)
K562
  GI50: > 100 µM (inactive)
M14
  GI50: > 100 µM (inactive)
NCI-H522
  GI50: > 10 µM (inactive)
OVCAR-5
  GI50: > 100 µM (inactive)
SF-295
  GI50: > 100 µM (inactive)
SF-539
  GI50: > 100 µM (inactive)
SK-MEL-28
  GI50: > 100 µM (inactive)
U-251
  GI50: > 100 µM (inactive)
UACC-62
  GI50: > 100 µM (inactive)

## CC1[C@@]2(CCC(C)(C)O2)O[C@@H]2C=C3C4CCC5Cc6nc7c(nc6C[C@@]5(C)C4C[C@H](O)[C@@]3(C)[C@]12O)CC1CCC2C3=C[C@H]4O[C@@]5(O[C@@](C)(CO)C[C@@H]5O)C(C)[C@@]4(O)[C@]3(C)[C@@H](O)CC2[C@]1(C)C7 (some centres not stated)
A549
  GI50: 0.0953 µM (active)
COLO 205
  GI50: 0.163 µM (active)
HCT-116
  GI50: 0.12 µM (active)
HCT-15
  GI50: 0.169 µM
HT-29
  GI50: 0.109 µM (active)
IGROV-1
  GI50: 0.248 µM (active)
K562
  GI50: 0.055 µM (active)
M14
  GI50: 0.04 µM (active)
NCI-H522
  GI50: 0.00902 µM (active)
OVCAR-5
  GI50: 0.142 µM (active)
SF-295
  GI50: 0.00807 µM (active)
SF-539
  GI50: 0.00847 µM (active)
SK-MEL-28
  GI50: 0.0553 µM (active)
U-251
  GI50: 0.0266 µM (active)
UACC-62
  GI50: 0.0508 µM (active)

## N#CC(C#N)=Cc1ccc(CP(=O)(O)O)cc1
A549
  GI50: > 100 µM (inactive)
COLO 205
  GI50: > 100 µM (inactive)
HCT-116
  GI50: > 100 µM (inactive)
HCT-15
  GI50: > 100 µM
HT-29
  GI50: > 100 µM (inactive)
IGROV-1
  GI50: > 100 µM (inactive)
K562
  GI50: > 100 µM (inactive)
M14
  GI50: > 100 µM (inactive)
NCI-H522
  GI50: 59.6 µM (inactive)
OVCAR-5
  GI50: > 100 µM (inactive)
SF-295
  GI50: > 100 µM (inactive)
SF-539
  GI50: > 100 µM (inactive)
SK-MEL-28
  GI50: > 100 µM (inactive)
U-251
  GI50: > 100 µM (inactive)
UACC-62
  GI50: > 100 µM (inactive)

## CC(C)C1=Cc2ccc3c(c2C(=O)C1=O)CCCC3(C)C [MILTIRONE]
A549
  GI50: 18.3 µM (inactive)
COLO 205
  GI50: 4.19 µM (inactive)
HCT-116
  GI50: 1.81 µM (inactive)
HCT-15
  GI50: 1.99 µM
HT-29
  GI50: 20.1 µM (inactive)
IGROV-1
  GI50: 5.93 µM (inactive)
K562
  GI50: 2.67 µM (inactive)
M14
  GI50: 5.46 µM (inactive)
NCI-H522
  GI50: 1.79 µM (inactive)
OVCAR-5
  GI50: 19.4 µM (inactive)
SF-295
  GI50: 17.2 µM (inactive)
SF-539
  GI50: 5.33 µM (inactive)
SK-MEL-28
  GI50: 5.62 µM (inactive)
U-251
  GI50: 14.2 µM (inactive)
UACC-62
  GI50: 5.66 µM (inactive)

## Cc1ccc(NC(=O)C(=O)C2C(=O)N(c3ccccc3)N=C2N)cc1C (configuration not stated)
A549
  GI50: > 100 µM (inactive)
COLO 205
  GI50: > 100 µM (inactive)
HCT-116
  GI50: > 100 µM (inactive)
HCT-15
  GI50: > 100 µM
HT-29
  GI50: > 100 µM (inactive)
IGROV-1
  GI50: > 100 µM (inactive)
K562
  GI50: > 100 µM (inactive)
M14
  GI50: > 100 µM (inactive)
NCI-H522
  GI50: > 100 µM (inactive)
OVCAR-5
  GI50: > 100 µM (inactive)
SF-295
  GI50: > 100 µM (inactive)
SF-539
  GI50: > 100 µM (inactive)
SK-MEL-28
  GI50: > 100 µM (inactive)
U-251
  GI50: > 100 µM (inactive)
UACC-62
  GI50: > 100 µM (inactive)

## CC(=O)OCC1OC(OC(C)=O)C(NC#N)C(OC(C)=O)C1OC(C)=O (configuration not stated)
A549
  GI50: > 100 µM (inactive)
COLO 205
  GI50: > 100 µM (inactive)
HCT-116
  GI50: > 100 µM (inactive)
HCT-15
  GI50: > 100 µM
HT-29
  GI50: > 100 µM (inactive)
IGROV-1
  GI50: > 100 µM (inactive)
K562
  GI50: > 100 µM (inactive)
M14
  GI50: 97.7 µM (inactive)
NCI-H522
  GI50: > 100 µM (inactive)
OVCAR-5
  GI50: > 100 µM (inactive)
SF-295
  GI50: 80.4 µM (inactive)
SF-539
  GI50: > 100 µM (inactive)
SK-MEL-28
  GI50: > 100 µM (inactive)
U-251
  GI50: > 100 µM (inactive)
UACC-62
  GI50: > 100 µM (inactive)

## CC(C)(C)[C@H]1CO[C@]2(C)[C@@H]3C[C@@H]3C(=O)N12
A549
  GI50: > 100 µM (inactive)
COLO 205
  GI50: > 100 µM (inactive)
HCT-116
  GI50: > 100 µM (inactive)
HCT-15
  GI50: > 100 µM
HT-29
  GI50: > 100 µM (inactive)
IGROV-1
  GI50: > 100 µM (inactive)
K562
  GI50: > 100 µM (inactive)
M14
  GI50: > 100 µM (inactive)
NCI-H522
  GI50: > 100 µM (inactive)
OVCAR-5
  GI50: > 100 µM (inactive)
SF-295
  GI50: > 100 µM (inactive)
SF-539
  GI50: > 100 µM (inactive)
SK-MEL-28
  GI50: > 100 µM (inactive)
U-251
  GI50: > 100 µM (inactive)
UACC-62
  GI50: > 100 µM (inactive)

## O=S1(=O)C[C@H](O)[C@H](O)CS1
A549
  GI50: > 100 µM (inactive)
COLO 205
  GI50: > 100 µM (inactive)
HCT-116
  GI50: > 100 µM (inactive)
HT-29
  GI50: > 100 µM (inactive)
IGROV-1
  GI50: > 100 µM (inactive)
K562
  GI50: > 100 µM (inactive)
M14
  GI50: > 100 µM (inactive)
NCI-H522
  GI50: > 100 µM (inactive)
OVCAR-5
  GI50: > 100 µM (inactive)
SF-295
  GI50: > 100 µM (inactive)
SF-539
  GI50: > 100 µM (inactive)
SK-MEL-28
  GI50: > 100 µM (inactive)
U-251
  GI50: > 100 µM (inactive)
UACC-62
  GI50: > 100 µM (inactive)

## Cc1cc(N(CCC#N)CCC#N)ccc1/N=N/c1cccc(Cl)c1
A549
  GI50: 9.93 µM (inactive)
COLO 205
  GI50: > 100 µM (inactive)
HCT-116
  GI50: > 100 µM (inactive)
HT-29
  GI50: 4.08 µM (inactive)
K562
  GI50: 3.42 µM (inactive)
M14
  GI50: > 100 µM (inactive)
NCI-H522
  GI50: > 100 µM (inactive)
OVCAR-5
  GI50: > 100 µM (inactive)
SF-295
  GI50: > 100 µM (inactive)
SF-539
  GI50: > 100 µM (inactive)
SK-MEL-28
  GI50: > 100 µM (inactive)
U-251
  GI50: > 100 µM (inactive)
UACC-62
  GI50: 70.8 µM (inactive)

## O=CN/C=C\c1cc(O)ccc1O
A549
  GI50: > 100 µM (inactive)
COLO 205
  GI50: 14.2 µM (inactive)
HCT-116
  GI50: 10.6 µM (inactive)
HCT-15
  GI50: 9.31 µM
HT-29
  GI50: 16.9 µM (inactive)
IGROV-1
  GI50: > 40.1 µM (inactive)
K562
  GI50: 13.3 µM (inactive)
M14
  GI50: 13.5 µM (inactive)
NCI-H522
  GI50: 4.99 µM (inactive)
OVCAR-5
  GI50: > 100 µM (inactive)
SF-295
  GI50: 28.4 µM (inactive)
SF-539
  GI50: 10.7 µM (inactive)
SK-MEL-28
  GI50: 42.2 µM (inactive)
U-251
  GI50: 32 µM (inactive)
UACC-62
  GI50: 11.6 µM (inactive)

## C=CCC1(CN(C)C)CC/C(=C\c2cc(OC)c(OC)c(OC)c2)C1=O (configuration not stated)
A549
  GI50: 40.2 µM (inactive)
COLO 205
  GI50: 17 µM (inactive)
HCT-116
  GI50: 17.5 µM (inactive)
HCT-15
  GI50: 20 µM
HT-29
  GI50: 20.5 µM (inactive)
IGROV-1
  GI50: 29.4 µM (inactive)
K562
  GI50: 20.4 µM (inactive)
M14
  GI50: 19.4 µM (inactive)
NCI-H522
  GI50: 15.1 µM (inactive)
OVCAR-5
  GI50: 51.9 µM (inactive)
SF-295
  GI50: 38.1 µM (inactive)
SF-539
  GI50: 18.7 µM (inactive)
SK-MEL-28
  GI50: 34.2 µM (inactive)
U-251
  GI50: 23 µM (inactive)
UACC-62
  GI50: 21.3 µM (inactive)

## CC(C)=CCc1c(C)cc2cc3c(c(O)c2c1O)C(=O)C=C(O)C3(CC=C(C)C)C/C=C(\C)CO (configuration not stated)
A549
  GI50: 33.3 µM (inactive)
COLO 205
  GI50: 40.5 µM (inactive)
HCT-116
  GI50: 37 µM (inactive)
HCT-15
  GI50: 28 µM
HT-29
  GI50: 37.2 µM (inactive)
IGROV-1
  GI50: 38.1 µM (inactive)
K562
  GI50: 23.3 µM (inactive)
NCI-H522
  GI50: 27.9 µM (inactive)
OVCAR-5
  GI50: 48.2 µM (inactive)
SF-295
  GI50: 45.2 µM (inactive)
SF-539
  GI50: 39.1 µM (inactive)
SK-MEL-28
  GI50: 46.2 µM (inactive)
U-251
  GI50: 29.6 µM (inactive)
UACC-62
  GI50: 32.3 µM (inactive)

## CCNC(=O)N(CC)CN(CC)C(=O)NCC
A549
  GI50: > 100 µM (inactive)
COLO 205
  GI50: > 100 µM (inactive)
HCT-116
  GI50: > 100 µM (inactive)
HCT-15
  GI50: > 100 µM
HT-29
  GI50: > 100 µM (inactive)
K562
  GI50: > 100 µM (inactive)
M14
  GI50: > 100 µM (inactive)
NCI-H522
  GI50: > 100 µM (inactive)
OVCAR-5
  GI50: > 100 µM (inactive)
SF-295
  GI50: > 100 µM (inactive)
SF-539
  GI50: > 100 µM (inactive)
SK-MEL-28
  GI50: > 100 µM (inactive)
UACC-62
  GI50: > 100 µM (inactive)

## Cn1cnc([N+](=O)[O-])c1Sc1ccccn1
A549
  GI50: > 100 µM (inactive)
COLO 205
  GI50: 76.4 µM (inactive)
HCT-116
  GI50: > 100 µM (inactive)
HT-29
  GI50: > 100 µM (inactive)
IGROV-1
  GI50: > 100 µM (inactive)
K562
  GI50: > 100 µM (inactive)
M14
  GI50: > 100 µM (inactive)
NCI-H522
  GI50: 74.3 µM (inactive)
OVCAR-5
  GI50: > 100 µM (inactive)
SF-295
  GI50: > 100 µM (inactive)
SF-539
  GI50: > 100 µM (inactive)
SK-MEL-28
  GI50: > 100 µM (inactive)
U-251
  GI50: > 100 µM (inactive)
UACC-62
  GI50: > 100 µM (inactive)
